# Test results published in patent US10774051B2, “6-membered heterocyclic derivatives and pharmaceutical composition comprising the same” (Shionogi & Co., Ltd., priority 2015, dated 2020).
# Biological target: human P2X7 receptor (Homo sapiens, UniProt Q99572, R270H/Y155H)
# Test: Evaluation of human P2X7 receptor inhibitory activity (Yo-Pro uptake, BzATP stimulation, FLIPR TETRA)
# Format: cell-based
# Conditions: 1321N1 cells stably expressing human P2X7 receptor; BzATP stimulation, Yo-Pro uptake; read-out: IC50 (antagonistic activity for the human P2X7 receptor)
# Experimental: Stably expressing cell line (1321N1 cell transfected with the human P2X7 receptor gene (GenBank accession number NM_002562.5 including T606C and G952A SNP)) was used. The cells were seeded in a 384-well microtiter plate at a concentration of 8000 cells/well and cultured in the medium (10% fetal bovine serum, 25 mM HEPES, 1% penicillin and streptomycin in DMEM) for one day at 37° C. under 5% carbon dioxide atmosphere. After replacing with 20 μL of the HBSS buffer (20 mM HEPES, 55.6 mM D-glucose, 1×HBSS(−), pH7.4-7.5), 15 μL of 17.3 μM Yo-Pro solution in the HBSS buffer was added. The plate was placed in high-throughput cellular screening system FLIPR TETRA (Molecullar Devices, LLC.) and 15 μL of 130 μM BzATP solution in the HBSS buffer was added. Measurement of fluorescence intensity by FLIPR TETRA was started. After eight minutes, 15 μL of DMSO solutions containing different concentrations of the compound of the present invention as prepared by dilution with the HBSS buffer were dispensed to each well through the built-in automatic dispenser, and the measurement of fluorescence intensity was continued for 20 minutes. […] Changing values of fluorescence intensity by the compound of the present invention were calculated by difference between maximum and minimum fluorescence intensity for 20 minutes. Inhibition ratios (%) were calculated from the following equation:
# [formula] IC50 was calculated using logistic approximation.
row,SMILES,IC50 [µM]
1,COc1cn(CCc2ccccc2)c(Nc2cccc(Cl)c2C)nc1=O [Compound I-0008],0.037
2,Cc1c(Cl)cccc1Nc1nc(=O)c(C#N)cn1Cc1ccccc1 [Compound I-0013],0.039
3,COc1cn(Cc2ccccc2C)c(Nc2cccc(C(F)(F)F)c2Cl)nc1=O [Compound I-0014],0.25
4,Cc1c(Cl)cccc1Nc1nc(=O)c(C(=O)NC2CCOCC2)cn1Cc1ccccc1 [Compound I-0019],0.049
5,COC(=O)Nc1cn(Cc2ccccc2)c(Nc2cccc(Cl)c2C)nc1=O [Compound I-0020],0.017
6,Cc1c(Cl)cccc1Nc1nc(=O)c(N)cn1Cc1ccccc1 [Compound I-0022],0.017
7,Cc1nc2cc(C)c(Nc3cc(=O)n(C)c(=O)n3Cc3cc(F)c(F)c(F)c3)cc2s1 [Compound I-0030],0.034
8,COc1cn(Cc2ccc(F)c(Cl)c2)c(Nc2cc3sc(C)nc3cc2C)nc1=O [Compound I-0033],0.049
9,COc1cn(Cc2ccccc2)c(NC2C[C@@H]3CC[C@H]2C3)nc1=O (stereo partly drawn) [Compound I-0042],0.83
10,COc1cccc(Cn2cc(OC)c(=O)nc2Nc2cccc(Cl)c2C)c1 [Compound I-0052],0.13
11,Cc1c(Cl)cccc1Nc1nc(=O)ccn1CCc1ccccc1 [Compound I-0055],0.026
12,COc1cn(Cc2ccccc2)c(Nc2cccc3c2CCC3)nc1=O [Compound I-0062],0.59

# Same assay, conditions: 1321N1 cells stably expressing human P2X7 receptor; BzATP stimulation, Yo-Pro uptake; read-out: IC50 (antagonistic activity for the human P2X7 receptor), class symbol
row,SMILES,IC50 [µM]
1,COc1cn(Cc2ccc(F)cc2)c(Nc2cccc(Cl)c2C)nc1=O [Compound I-0001],< 0.01
2,COc1cn(Cc2cc(F)cc(F)c2)c(Nc2cccc(Cl)c2C)nc1=O [Compound I-0002],< 0.01
3,COc1cn(Cc2cc(F)cc(F)c2)c(Nc2cc3c(cc2C)COC3)nc1=O [Compound I-0003],< 0.01
4,COc1cccc(Nc2nc(=O)c(OC)cn2Cc2ccccc2)c1C [Compound I-0007],0.01 to 0.1
5,Cc1c(Cl)cccc1Nc1nc(=O)ccn1Cc1ccccc1 [Compound I-0009],< 0.01
6,Cc1c(Cl)cccc1Nc1nc(=O)c(F)cn1Cc1ccccc1 [Compound I-0010],< 0.01
7,Cc1c(Cl)cccc1Nc1nc(=O)c(Cl)cn1Cc1ccccc1 [Compound I-0011],0.01 to 0.1
8,Cc1c(Cl)cccc1Nc1nc(=O)c(C)cn1Cc1ccccc1 [Compound I-0012],0.01 to 0.1
9,Cc1ccccc1Cn1cc(O)c(=O)nc1Nc1cccc(C(F)(F)F)c1Cl [Compound I-0015],0.5 to 1
10,Cc1c(Cl)cccc1Nc1nc(=O)c(OCC(F)(F)F)cn1Cc1ccccc1 [Compound I-0016],0.01 to 0.1
11,Cc1c(Cl)cccc1Nc1nc(=O)c(C(=O)O)cn1Cc1ccccc1 [Compound I-0018],0.1 to 0.5
12,Cc1c(Cl)cccc1Nc1nc(=O)c(NC(=O)OC(C)(C)C)cn1Cc1ccccc1 [Compound I-0021],0.1 to 0.5
13,CCOC(=O)Cc1cn(Cc2ccccc2)c(Nc2cccc(Cl)c2C)nc1=O [Compound I-0023],0.1 to 0.5
14,Cc1c(Cl)cccc1Nc1nc(=O)c(CCO)cn1Cc1ccccc1 [Compound I-0024],0.01 to 0.1
15,Cc1c(Cl)cccc1Nc1nc(=O)c(CC(=O)O)cn1Cc1ccccc1 [Compound I-0025],0.5 to 1
16,Cc1c(Cl)cccc1Nc1nc(=O)c(CC(N)=O)cn1Cc1ccccc1 [Compound I-0026],0.01 to 0.1
17,Cc1c(Cl)cccc1Nc1nc(=O)c(Br)cn1Cc1ccccc1 [Compound I-0027],0.01 to 0.1
18,Cc1c(Cl)cccc1Nc1nc(=O)c(-c2ccccc2)cn1Cc1ccccc1 [Compound I-0028],0.5 to 1
19,COc1cn(Cc2ccccc2)c(NCc2cccc(C(F)(F)F)c2Cl)nc1=O [Compound I-0035],0.1 to 0.5
20,COc1cn(Cc2ccccc2)c(Nc2cccc(C(F)(F)F)c2Cl)nc1=O [Compound I-0036],0.1 to 0.5
21,COc1cn(Cc2ccccc2)c(Nc2cccc(Cl)c2C)nc1=O [Compound I-0037],< 0.01
22,COc1cn(Cc2ccc(F)cc2)c(Nc2cccc(C(F)(F)F)c2Cl)nc1=O [Compound I-0038],0.01 to 0.1

row,SMILES,IC50 [µM]
1,COc1cn(Cc2cccc(F)c2)c(Nc2cccc(Cl)c2C)nc1=O [Compound I-0039],0.01 to 0.1
2,COc1cn(Cc2ccccc2F)c(Nc2cccc(Cl)c2C)nc1=O [Compound I-0040],0.01 to 0.1
3,Cc1c(Cl)cccc1Nc1nc(=O)c(F)cn1Cc1ccc(F)cc1 [Compound I-0041],< 0.01
4,COc1cn(Cc2ccccc2C)c(Nc2cccc(Cl)c2C)nc1=O [Compound I-0043],0.1 to 0.5
5,COc1cn(Cc2cccc(C)c2)c(Nc2cccc(Cl)c2C)nc1=O [Compound I-0044],0.01 to 0.1
6,COc1cn(Cc2ccc(C)cc2)c(Nc2cccc(Cl)c2C)nc1=O [Compound I-0045],0.5 to 1
7,COc1cn(Cc2cccc(C#N)c2)c(Nc2cccc(Cl)c2C)nc1=O [Compound I-0047],0.5 to 1
8,COc1cn(Cc2ccccc2)c(Nc2cccc3c2CCNC3)nc1=O [Compound I-0050],0.5 to 1
9,COc1ccccc1Cn1cc(OC)c(=O)nc1Nc1cccc(Cl)c1C [Compound I-0054],0.1 to 0.5
10,Cc1c(Cl)cccc1Nc1nc(=O)c(C#N)cn1Cc1ccc(F)cc1 [Compound I-0056],0.01 to 0.1
11,COc1cn(Cc2ccccc2)c(Nc2ccccc2Cl)nc1=O [Compound I-0060],0.5 to 1
12,COc1cn(Cc2ccccc2)c(Nc2ccccc2C)nc1=O [Compound I-0061],0.5 to 1
13,COc1cn(Cc2ccccc2)c(NCc2ccccc2C(F)(F)F)nc1=O [Compound I-0065],0.5 to 1
14,COc1cn(Cc2ccccc2)c(NCc2ccccc2Oc2ccc(C)cc2)nc1=O [Compound I-0066],0.5 to 1
15,COc1cn(Cc2ccccc2)c(NCc2ccccc2N(C)C)nc1=O [Compound I-0067],0.5 to 1
16,COc1cn(Cc2ccccc2)c(Nc2cc(C)ccc2C)nc1=O [Compound I-0068],0.01 to 0.1
17,COc1cn(Cc2ccccc2)c(Nc2cc(N3CCCS3(=O)=O)ccc2C)nc1=O [Compound I-0070],0.01 to 0.1
18,COc1cn(Cc2ccccc2)c(Nc2ccc(Cl)cc2Cl)nc1=O [Compound I-0071],0.1 to 0.5
19,COc1cn(Cc2ccccc2)c(Nc2ccc(Cl)cc2C)nc1=O [Compound I-0072],0.01 to 0.1
20,COc1cn(Cc2ccccc2)c(NC2CCc3ccccc32)nc1=O (stereo not drawn) [Compound I-0073],0.5 to 1
21,COc1ccc(C)c(Nc2nc(=O)c(OC)cn2Cc2ccccc2)c1 [Compound I-0074],0.01 to 0.1
22,Cc1c(Cl)cccc1Nc1nc(=O)c(C(=O)NCC#N)cn1Cc1ccccc1 [Compound I-0075],0.1 to 0.5

row,SMILES,IC50 [µM]
1,COCCNC(=O)c1cn(Cc2ccccc2)c(Nc2cccc(Cl)c2C)nc1=O [Compound I-0076],0.1 to 0.5
2,Cc1c(Cl)cccc1Nc1nc(=O)c(C(=O)NCCS(C)(=O)=O)cn1Cc1ccccc1 [Compound I-0077],0.01 to 0.1
3,CCNC(=O)c1cn(Cc2ccccc2)c(Nc2cccc(Cl)c2C)nc1=O [Compound I-0078],0.1 to 0.5
4,COc1cn(Cc2ccccc2)c(Nc2cc(Cl)ccc2Cl)nc1=O [Compound I-0080],0.1 to 0.5
5,COc1cn(Cc2ccccc2)c(Nc2cccc(F)c2C)nc1=O [Compound I-0082],0.1 to 0.5
6,COc1cn(Cc2ccccc2)c(Nc2c(Cl)cccc2Cl)nc1=O [Compound I-0083],0.5 to 1
7,CCc1ccccc1Nc1nc(=O)c(OC)cn1Cc1ccccc1 [Compound I-0084],0.01 to 0.1
8,COc1cn(Cc2ccccc2)c(Nc2cccc(C(F)(F)F)c2C)nc1=O [Compound I-0085],0.01 to 0.1
9,COC(=O)c1cccc(Nc2nc(=O)c(OC)cn2Cc2ccccc2)c1C [Compound I-0088],0.1 to 0.5
10,COc1cn(Cc2ccccc2)c(Nc2ccccc2C(F)(F)F)nc1=O [Compound I-0089],0.5 to 1
11,COc1cn(Cc2ccccc2)c(Nc2cc(F)ccc2C)nc1=O [Compound I-0090],0.1 to 0.5
12,COc1cn(Cc2ccccc2)c(Nc2cccc(-n3cccc3)c2C)nc1=O [Compound I-0091],0.1 to 0.5
13,COc1cn(Cc2ccccc2)c(Nc2cc(Cl)ccc2C)nc1=O [Compound I-0092],0.1 to 0.5
14,COc1cn(Cc2ccccc2)c(Nc2cccc(OC(F)F)c2C)nc1=O [Compound I-0093],0.01 to 0.1
15,COc1cn(Cc2ccccc2)c(Nc2cccc(C)c2C)nc1=O [Compound I-0095],0.01 to 0.1
16,COc1cn(Cc2ccccc2)c(Nc2cccc(Cl)c2Cl)nc1=O [Compound I-0096],0.01 to 0.1
17,COc1cn(Cc2ccccc2)c(Nc2cc(C(F)(F)F)ccc2C)nc1=O [Compound I-0097],0.1 to 0.5
18,Cc1c(Cl)cccc1Nc1nc(=O)c(C(=O)NCC(F)(F)F)cn1Cc1ccccc1 [Compound I-0098],0.5 to 1
19,COc1cn(CCCc2ccccc2)c(Nc2cccc(Cl)c2C)nc1=O [Compound I-0099],0.1 to 0.5
20,Cc1c(Cl)cccc1Nc1nc(=O)c(C(=O)N(C)C)cn1Cc1ccccc1 [Compound I-0100],0.1 to 0.5
21,CCc1cc(Br)ccc1Nc1nc(=O)c(OC)cn1Cc1ccccc1 [Compound I-0101],0.01 to 0.1
22,COc1cn(Cc2ccccc2)c(NCc2ccccc2C)nc1=O [Compound I-0102],0.1 to 0.5
